In paper PMC6934184, “Selective DNA-PKcs inhibition extends the therapeutic index of localized radiotherapy and chemotherapy” (The Journal of Clinical Investigation, 2019):

Molecular target: T1, MET D1228H (Homo sapiens, UniProt P08581, D1228H)
T1 construct: purchased Thermo Fisher Scientific (Life Technologies) SelectScreen
Experiment: SelectScreen LanthaScreen
Assay type: binding
Conditions: 1 µM
Procedure, shortened: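 SelectScreen broad panel; activity (Z'LYTE, Adapta) plus binding formats. ATP: Km app for CSF1R Z'LYTE; 10 for CAMK1 Adapta. Readout = % per kinase.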

T1 sequence (P08581 25-1390 D1228H): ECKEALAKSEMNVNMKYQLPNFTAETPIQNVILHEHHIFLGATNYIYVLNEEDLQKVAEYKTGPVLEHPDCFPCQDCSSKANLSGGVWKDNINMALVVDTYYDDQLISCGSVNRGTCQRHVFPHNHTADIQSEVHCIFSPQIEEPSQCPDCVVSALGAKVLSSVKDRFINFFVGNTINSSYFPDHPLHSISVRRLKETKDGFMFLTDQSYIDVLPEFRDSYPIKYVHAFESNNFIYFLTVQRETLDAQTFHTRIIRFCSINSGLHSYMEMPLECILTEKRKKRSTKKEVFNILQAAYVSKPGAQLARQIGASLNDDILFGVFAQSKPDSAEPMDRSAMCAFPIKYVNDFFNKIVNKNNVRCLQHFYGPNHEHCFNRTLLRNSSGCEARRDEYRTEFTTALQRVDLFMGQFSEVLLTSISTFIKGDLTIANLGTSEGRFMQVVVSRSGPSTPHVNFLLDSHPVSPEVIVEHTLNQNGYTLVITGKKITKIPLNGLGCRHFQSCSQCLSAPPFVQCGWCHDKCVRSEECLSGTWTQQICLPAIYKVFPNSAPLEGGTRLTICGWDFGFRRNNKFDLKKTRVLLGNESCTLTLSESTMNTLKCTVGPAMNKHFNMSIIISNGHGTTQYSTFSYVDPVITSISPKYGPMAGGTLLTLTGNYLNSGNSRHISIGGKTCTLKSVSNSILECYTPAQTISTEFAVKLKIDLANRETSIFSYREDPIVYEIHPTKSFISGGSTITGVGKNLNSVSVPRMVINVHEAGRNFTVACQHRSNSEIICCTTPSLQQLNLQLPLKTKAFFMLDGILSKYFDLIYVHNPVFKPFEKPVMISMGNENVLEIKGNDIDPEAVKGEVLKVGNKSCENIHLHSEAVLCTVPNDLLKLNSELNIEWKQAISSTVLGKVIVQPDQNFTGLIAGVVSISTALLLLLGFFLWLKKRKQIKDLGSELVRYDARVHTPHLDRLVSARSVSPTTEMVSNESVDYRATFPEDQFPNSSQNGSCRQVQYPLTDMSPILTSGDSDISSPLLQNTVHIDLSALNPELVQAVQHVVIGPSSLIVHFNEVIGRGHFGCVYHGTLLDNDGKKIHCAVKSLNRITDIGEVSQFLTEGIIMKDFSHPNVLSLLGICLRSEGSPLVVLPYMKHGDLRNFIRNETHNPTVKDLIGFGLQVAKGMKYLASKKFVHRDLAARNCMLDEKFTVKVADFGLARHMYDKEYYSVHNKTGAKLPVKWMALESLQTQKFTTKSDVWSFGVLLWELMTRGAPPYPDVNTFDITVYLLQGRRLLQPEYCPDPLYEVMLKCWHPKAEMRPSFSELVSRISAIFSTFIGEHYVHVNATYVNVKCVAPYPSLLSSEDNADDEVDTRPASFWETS

CN(C(=O)CN1CCOCC1)c1ccc2sc3c(-c4cccc5c(=O)cc(N6CC7CCC(C6)O7)oc45)cccc3c2c1 [NU5455]
% displacement: -1.5%
